The target in experiment [1] is T1, NAD-dependent protein deacetylase sirtuin-1 (Homo sapiens, UniProt Q96EB6).
T1 sequence (Q96EB6 whole entry): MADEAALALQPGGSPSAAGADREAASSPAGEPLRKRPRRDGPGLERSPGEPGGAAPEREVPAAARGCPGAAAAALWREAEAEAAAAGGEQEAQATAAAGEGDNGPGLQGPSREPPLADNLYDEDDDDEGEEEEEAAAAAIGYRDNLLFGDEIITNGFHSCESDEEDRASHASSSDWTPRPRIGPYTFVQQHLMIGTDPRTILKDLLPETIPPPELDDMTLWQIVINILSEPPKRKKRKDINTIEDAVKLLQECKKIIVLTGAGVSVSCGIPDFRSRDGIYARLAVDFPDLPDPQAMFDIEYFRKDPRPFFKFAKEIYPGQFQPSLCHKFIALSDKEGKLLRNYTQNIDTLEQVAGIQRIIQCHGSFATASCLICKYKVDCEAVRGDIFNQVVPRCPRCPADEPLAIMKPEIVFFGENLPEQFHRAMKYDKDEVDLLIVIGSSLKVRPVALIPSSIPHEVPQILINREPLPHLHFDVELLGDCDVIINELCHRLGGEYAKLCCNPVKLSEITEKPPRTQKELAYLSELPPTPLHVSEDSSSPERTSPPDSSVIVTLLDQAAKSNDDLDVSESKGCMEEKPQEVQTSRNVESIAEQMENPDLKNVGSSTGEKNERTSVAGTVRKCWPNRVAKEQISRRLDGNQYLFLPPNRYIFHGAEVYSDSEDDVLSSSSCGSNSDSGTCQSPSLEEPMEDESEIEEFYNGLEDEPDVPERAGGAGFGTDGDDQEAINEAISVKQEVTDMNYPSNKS
Kind of experiment: Inhibition of human SIRT1 (133 to 747 amino acid residues) assessed as deacetylation using Z-Lys(Acetyl)-AMC as substrate measured after 4 hrs by fluorescence based microplate reader method in presence of 500 uM beta-NAD+.

Experiment [2] deals with T2, NAD-dependent protein deacetylase sirtuin-3, mitochondrial (Homo sapiens, UniProt Q9NTG7).
T2 sequence (Q9NTG7 whole entry): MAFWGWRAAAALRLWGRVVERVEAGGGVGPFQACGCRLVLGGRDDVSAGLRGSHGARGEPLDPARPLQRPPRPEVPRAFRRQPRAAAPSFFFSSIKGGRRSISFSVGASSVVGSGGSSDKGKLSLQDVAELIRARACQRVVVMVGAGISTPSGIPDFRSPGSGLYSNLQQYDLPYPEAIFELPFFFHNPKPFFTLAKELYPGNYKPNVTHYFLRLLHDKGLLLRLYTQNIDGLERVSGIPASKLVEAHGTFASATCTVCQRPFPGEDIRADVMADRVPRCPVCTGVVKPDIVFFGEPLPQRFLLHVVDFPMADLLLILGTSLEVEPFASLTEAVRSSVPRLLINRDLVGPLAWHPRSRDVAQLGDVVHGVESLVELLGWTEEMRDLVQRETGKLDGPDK
Kind of experiment: Inhibition of human SIRT3 expressed in Escherichia coli BL21 (DE3) assessed as deacetylation using Z-Lys(Acetyl)-AMC as substrate measured after 4 hrs by fluorescence based microplate reader method in presence of 500 uM beta NAD+.

Experiment [3] has as its target T1, NAD-dependent protein deacetylase sirtuin-1. As to the kind of experiment: Inhibition of SIRT1 (unknown origin).
Experiment [4] has as its target T3, NAD-dependent protein deacetylase sirtuin-2 (Homo sapiens, UniProt Q8IXJ6).
T3 sequence (Q8IXJ6 whole entry): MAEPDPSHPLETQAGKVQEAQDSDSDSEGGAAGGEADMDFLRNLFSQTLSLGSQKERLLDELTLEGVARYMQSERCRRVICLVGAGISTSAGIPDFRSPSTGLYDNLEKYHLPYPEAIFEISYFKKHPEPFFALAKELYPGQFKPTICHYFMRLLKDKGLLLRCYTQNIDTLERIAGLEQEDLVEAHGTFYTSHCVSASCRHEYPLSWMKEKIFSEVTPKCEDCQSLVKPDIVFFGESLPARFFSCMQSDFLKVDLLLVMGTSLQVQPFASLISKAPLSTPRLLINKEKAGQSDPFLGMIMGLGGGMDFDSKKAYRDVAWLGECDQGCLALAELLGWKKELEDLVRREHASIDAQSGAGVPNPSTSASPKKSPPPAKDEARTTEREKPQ
Kind of experiment: Inhibition of human SIRT2.

For experiment [5], the target named is T2, NAD-dependent protein deacetylase sirtuin-3, mitochondrial. As to the kind of experiment: Inhibition of SIRT3 (unknown origin).
The target of experiment [6] is T1, NAD-dependent protein deacetylase sirtuin-1. Kind of experiment: Inhibition of recombinant GST-tagged human SIRT1 using 0.3 mM H2N-HK-[N(epsilon)-acetyl-lysine]-LM-COOH as substrate measured after 10 mins HPLC analysis in presence of 0.5 mM beta-NAD+.
Experiment [7] has as its target T3, NAD-dependent protein deacetylase sirtuin-2. As to the kind of experiment: Inhibition of recombinant His6 tagged human SIRT2 using 0.39 mM H2N-HK-[N(epsilon)-acetyl-lysine]-LM-COOH as substrate measured after 12 mins HPLC analysis in presence of 0.5 mM beta-NAD+.
Experiment [8] deals with T2, NAD-dependent protein deacetylase sirtuin-3, mitochondrial. Kind of experiment: Inhibition of recombinant His6 tagged human SIRT3 using 0.105 mM H2N-HK-[N(epsilon)-acetyl-lysine]-LM-COOH as substrate measured after 10 mins HPLC analysis in presence of 3.5 mM beta-NAD+.

Molecules are shown by their SMILES. *1 amine or outer side, *2 acyl side, *3 side chain or, on linkers, in order; H or OH if unused. Where a SMILES comes first, the peptide text is derived from it. Bridges are numbered along the chain shown (N, C = ends). [ ]: non-standard residue; d: D form. Suberoyl(Gly)2 = O=C(CCCCCCC(=O)NCC(=O)[*:2])NCC(=O)[*:1]; Lys(Thioacetyl) = CC(=S)NCCCC[C@H](N)C(=O)O; Suberoyl = O=C(CCCCCCC(=O)[*:2])[*:1]; Adipoyl = O=C(CCCCC(=O)[*:2])[*:1]; Suc = O=C(CCC(=O)[*:2])[*:1]

Regarding `Cc1cc(C)nc(SCC(=O)Nc2ncc(Cc3cccc4ccccc34)s2)n1`, the IC50 in experiment [1] and in experiment [2] was more than 140000 nM each time.

As to `CC[C@H](C)[C@@H]1NC(=O)[C@H](CCCNC(=N)N)NC(=O)[C@H](Cc2ccccc2)NC(=O)[C@H](CC(N)=O)NC(=O)[C@@H](CO)NC(=O)[C@H](Cc2ccc(O)cc2)NC(=O)CSC[C@@H](C(N)=O)NC(=O)[C@H](CO)NC(=O)[C@H](CO)NC(=O)[C@H](CC(N)=O)NC(=O)[C@H](CO)NC(=O)[C@H](Cc2ccc(O)cc2)NC(=O)[C@H](CCCNC(=N)N)NC(=O)[C@H](CCCCNC(=O)C(F)(F)F)NC1=O`, the IC50 in experiment [3] is 47 nM; in experiment [4], 3.2 nM; in experiment [5] it was 480 nM.

As for `CSCC[C@H](NC(=O)[C@@H]1CCCCNC(=O)CNC(=O)CCC(=O)NCC(=O)NCCCC[C@H](NC(C)=O)C(=O)N[C@@H](CCCCN)C(=O)N[C@@H](CCCCNC(C)=S)C(=O)N1)C(N)=O`, the IC50 was 56.8 nM in experiment [6], 58.9 nM in experiment [7] and 103 nM in experiment [8].

Regarding `CSCC[C@H](NC(=O)[C@@H]1CCCCNC(=O)CNC(=O)CCCCC(=O)NCC(=O)NCCCC[C@H](NC(C)=O)C(=O)N[C@@H](CCCCN)C(=O)N[C@@H](CCCCNC(C)=S)C(=O)N1)C(N)=O`, the IC50 is 38.7 nM in experiment [6], 53.1 nM in experiment [7] and 52.5 nM in experiment [8].

For `CSCC[C@H](NC(=O)[C@H](CC(C)C)NC(=O)[C@H](CCCCNC(C)=S)NC(=O)[C@H](CCCCN)NC(=O)[C@H](Cc1c[nH]cn1)NC(C)=O)C(N)=O` (Ac-HK[Lys(Thioacetyl)]LM-NH2), the IC50 in experiment [6] is 165 nM; in experiment [7], 332 nM.

For `CSCC[C@H](NC(=O)[C@@H]1CCCCNC(=O)CCCCC(=O)NCCCC[C@H](NC(C)=O)C(=O)N[C@@H](CCCCN)C(=O)N[C@@H](CCCCNC(C)=S)C(=O)N1)C(N)=O` (Ac-KK[Lys(Thioacetyl)]KM-NH2; linker 1-4 via Adipoyl), the IC50 in experiment [6] is 63.5 nM; in experiment [7], 134 nM.

`CSCC[C@H](NC(=O)[C@@H]1CCCCNC(=O)CNC(=O)CCCCCCC(=O)NCC(=O)NCCCC[C@H](NC(C)=O)C(=O)N[C@@H](CCCCN)C(=O)N[C@@H](CCCCNC(C)=S)C(=O)N1)C(N)=O` (Ac-KK[Lys(Thioacetyl)]KM-NH2; linker 1-4 via Suberoyl(Gly)2): the IC50 in experiment [6] turned out to be 2.3 nM; in experiment [7], 144 nM; in experiment [8], 42.9 nM.

Consider `CSCC[C@H](NC(=O)[C@@H]1CCCCNC(=O)CCCCCCC(=O)NCCCC[C@H](NC(C)=O)C(=O)N[C@@H](CCCCN)C(=O)N[C@@H](CCCCNC(C)=S)C(=O)N1)C(N)=O` (Ac-KK[Lys(Thioacetyl)]KM-NH2; linker 1-4 via Suberoyl), for which the IC50 turned out to be 37.1 nM in experiment [6] and 404 nM in experiment [7].

On to `CSCC[C@H](NC(=O)[C@@H]1CCCCNC(=O)CCC(=O)NCCCC[C@H](NC(C)=O)C(=O)N[C@@H](CCCCN)C(=O)N[C@@H](CCCCNC(C)=S)C(=O)N1)C(N)=O` (Ac-KK[Lys(Thioacetyl)]KM-NH2; linker 1-4 via Suc), for which the IC50 in experiment [6] came out at 75.2 nM; in experiment [7], 10.1 nM.

Broadly, the IC50 is the concentration at which inhibition is half-maximal.

The values are drawn from ChEMBL document CHEMBL3779768, “Simple N(ε)-thioacetyl-lysine-containing cyclic peptides exhibiting highly potent sirtuin inhibition” (Bioorg Med Chem Lett, 2016).
